Key:
[1] = Plasma concentrations during escalating i.v. infusion in anesthetized rats; type: in vivo; details: male, Sprague Dawley, plasma, iv, anesthetized rat, FTY720 i.v.
Description: The cardiovascular effects of FTY720 and BAF312 were tested in anesthetized rats (180–200 g). In brief, male Sprague Dawley rats (Charles River) were anesthetized with Inactin (110 mg/kg i.p.) and a tracheotomy performed. The femoral artery and veins were catheterized for measurement of mean arterial pressure and heart rate, collection of blood samples at 20-min intervals (0.2 mL/sample), and for compound infusion/hydration as previously described, [24]; blood samples were also withdrawn in vehicle-treated control rats. FTY720, infused as a hydrochloride salt (0.1, 0.3, 1.0 mg/kg/20-min free base equivalent solubilized in a 100% PEG-400 vehicle), or BAF312 (0.5, 1.5, 5.0 mg/kg/20-min solubilized in a 100% PEG-400 vehicle) were administered via three escalating 20-min infusions (0.011 mL/min) followed by a 1-hr post-treatment period. A blood sample was withdrawn at 20, 40, 60, and 120-minutes for analysis of plasma concentrations of the parent compound, and in the case of FTY720, also the phosphorylated metabolite, (S)-FTY720-P. Statistical significance (p<0.05) was based on a t-test comparing treatment change from baseline (baseline was defined as the period from −30 to 0 minutes) vs. vehicle controls change from baseline at each timepoint without adjustment for multiple comparisons. In a separate group of anesthetized rats in which left ventricular (LV) contractility was also recorded with a Millar pressure transducer introduced into the left ventricle, BAF312 was infused in the same dosing regimen as the studies described above (0.5, 1.5, 5.0 mg/kg/20-min solubilized in a 100% PEG-400 vehicle) and effects on LV dP/dtmax were recorded.

[2] = Plasma concentrations in repeat-dosing study, satellite rats; type: in vivo, rat; details: for concentration at 0 h / concentration at 4 h / concentration at 8 h / concentration at 24 h: male, Sprague Dawley, rat, plasma, po, mean±SEM; for Plasma concentration at Tmax / Terminal plasma concentration at Tmax: satellite rats; for Plasma concentration at Tmax: day 1; for Terminal plasma concentration at Tmax: last day of study
Description: (§1) Mean arterial pressure was assessed in conscious, freely moving male Sprague Dawley rats (n = 6–8/group; Charles River) instrumented with telemetry transmitters (DSI-Ponemah) and housed in metabolism cages as previously described, [26]. Tested compounds were solubilized in a 0.5% Methylcellulose/0.015% Tween 80 vehicle that was also dosed alone (p.o./QD, 5 mL/kg) as a control in the study. FTY720 was administered p.o. at 0.3, 1.0, 3.0, 10.0 mg/kg p.o. as a single dose or p.o./QD at 0.5, 1.5, and 5.0 mg/kg in a chronic study. BAF312 was administered p.o/QD at 0.3, 3.0, and 30 mg/kg as a single dose and in a chronic study. Mean arterial pressure and heart rate are shown as 1-hr and/or 24-hr mean values±SEM as described in the results. Blood samples in satellite rats were withdrawn at various timepoints as described in the results for analysis of plasma concentrations of the parent compound and, in the case of FTY720, also the phosphorylated metabolite, (S)-FTY720-P. Statistical analysis for the single-dose acute studies was based on one-way ANOVA to compare the treatment groups vs. vehicle for each time period after dosing (0–24 hrs, 24–48 hrs, and 48–72 hrs); statistical significance (p<0.05) was detected by Dunnett’s post-hoc test to compare treatment with vehicle controls. The statistical analysis in the chronic studies were based on one-way ANOVA with repeated measures to compare the treatment arms; statistical significance (p<0.05) was detected by Dunnett’s post-hoc test to compare treatment with vehicle controls.

[3] = Plasma concentrations after a single oral dose in rats; type: in vivo; details: rat; for concentration at 4 hr / concentration at 8 h / concentration at 24 h / concentration at 48 h / concentration at 72 h: male, Sprague Dawley, plasma, mean±SEM; for concentration at 4 hr: 4 hr post-dose; for concentration at 8 h: 8 hr post-dose; for concentration at 24 h: 24 hr post-dose; for concentration at 48 h: 48 hr post-dose; for concentration at 72 h: 72 hr post-dose
Description: as §1

[4] = FTY720 0.3 mg/kg single oral dose
[5] = FTY720 1.0 mg/kg single oral dose
[6] = FTY720 3.0 mg/kg single oral dose
[7] = FTY720 10.0 mg/kg single oral dose

CCCCCCCCc1ccc(CCC(N)(CO)CO)cc1 [FTY720]
concentration at 20 min ([1]; end of 0.1 mg/kg/20 min infusion): 54 ± 9 nM | concentration at 40 min ([1]; end of 0.3 mg/kg/20 min infusion): 198 ± 13 nM | concentration at 60 min ([1]; end of 1.0 mg/kg/20 min infusion): 375 ± 46 nM | concentration at 120 min ([1]; end of 60-min post-treatment period): 121 ± 5 nM | concentration at 0 h ([2]; 0.5 mg/kg/day, FTY720 0.5 mg/kg/d p.o., Terminal (last day)): 18 ± 2 nM | concentration at 4 h ([2]; 0.5 mg/kg/day, FTY720 0.5 mg/kg/d p.o., Terminal (last day), 4 hr post-dose): 24 ± 3 nM | concentration at 8 h ([2]; 0.5 mg/kg/day, FTY720 0.5 mg/kg/d p.o., Terminal (last day), 8 hr post-dose): 63 ± 37 nM | concentration at 24 h ([2]; 0.5 mg/kg/day, FTY720 0.5 mg/kg/d p.o., Terminal (last day), 24 hr post-dose): 40 ± 27 nM | concentration at 4 h ([2]; 0.5 mg/kg/day, FTY720 0.5 mg/kg/d p.o., Day 1, 4 hr post-dose): 9 ± 1 nM | concentration at 8 h ([2]; 0.5 mg/kg/day, FTY720 0.5 mg/kg/d p.o., Day 1, 8 hr post-dose): 13 ± 2 nM | concentration at 24 h ([2]; 0.5 mg/kg/day, FTY720 0.5 mg/kg/d p.o., Day 1, 24 hr post-dose): 8 ± 1 nM | concentration at 0 h ([2]; 1.5 mg/kg/day, FTY720 1.5 mg/kg/d p.o., Terminal (last day)): 58 ± 7 nM | concentration at 4 h ([2]; 1.5 mg/kg/day, FTY720 1.5 mg/kg/d p.o., Terminal (last day), 4 hr post-dose): 60 ± 6 nM | concentration at 8 h ([2]; 1.5 mg/kg/day, FTY720 1.5 mg/kg/d p.o., Terminal (last day), 8 hr post-dose): 81 ± 4 nM | concentration at 24 h ([2]; 1.5 mg/kg/day, FTY720 1.5 mg/kg/d p.o., Terminal (last day), 24 hr post-dose): 44 ± 5 nM | concentration at 4 h ([2]; 1.5 mg/kg/day, FTY720 1.5 mg/kg/d p.o., Day 1, 4 hr post-dose): 45 ± 4 nM | concentration at 8 h ([2]; 1.5 mg/kg/day, FTY720 1.5 mg/kg/d p.o., Day 1, 8 hr post-dose): 53 ± 9 nM | concentration at 24 h ([2]; 1.5 mg/kg/day, FTY720 1.5 mg/kg/d p.o., Day 1, 24 hr post-dose): 34 ± 4 nM | concentration at 0 h ([2]; 5 mg/kg/day, FTY720 5.0 mg/kg/d p.o., Terminal (last day)): 207 ± 27 nM | concentration at 4 h ([2]; 5 mg/kg/day, FTY720 5.0 mg/kg/d p.o., Terminal (last day), 4 hr post-dose): 229 ± 21 nM | concentration at 8 h ([2]; 5 mg/kg/day, FTY720 5.0 mg/kg/d p.o., Terminal (last day), 8 hr post-dose): 176 ± 37 nM | concentration at 24 h ([2]; 5 mg/kg/day, FTY720 5.0 mg/kg/d p.o., Terminal (last day), 24 hr post-dose): 134 ± 21 nM | concentration at 4 h ([2]; 5 mg/kg/day, FTY720 5.0 mg/kg/d p.o., Day 1, 4 hr post-dose): 98 ± 14 nM | concentration at 8 h ([2]; 5 mg/kg/day, FTY720 5.0 mg/kg/d p.o., Day 1, 8 hr post-dose): 102 ± 4 nM | concentration at 24 h ([2]; 5 mg/kg/day, FTY720 5.0 mg/kg/d p.o., Day 1, 24 hr post-dose): 17 ± 40 nM | Plasma concentration at Tmax ([2]; FTY720 0.5 mg/kg/d p.o.): 13 ± 2 nM | Terminal plasma concentration at Tmax ([2]; FTY720 0.5 mg/kg/d p.o.): 63 ± 37 nM | Plasma concentration at Tmax ([2]; FTY720 1.5 mg/kg/d p.o.): 53 ± 9 nM | Terminal plasma concentration at Tmax ([2]; FTY720 1.5 mg/kg/d p.o.): 81 ± 4 nM | Plasma concentration at Tmax ([2]; FTY720 5.0 mg/kg/d p.o.): 120 ± 17 nM | Terminal plasma concentration at Tmax ([2]; FTY720 5.0 mg/kg/d p.o.): 229 ± 21 nM | concentration at 4 hr [3, 4]: 10 ± 5 nM | concentration at 8 h [3, 4]: 14 ± 5 nM | concentration at 24 h [3, 4]: 15 ± 3 nM | concentration at 48 h [3, 4]: 13 ± 1 nM | concentration at 72 h [3, 4]: 7 ± 2 nM | concentration at 4 hr [3, 5]: 25 ± 3 nM | concentration at 8 h [3, 5]: 36 ± 5 nM | concentration at 24 h [3, 5]: 22 ± 2 nM | concentration at 48 h [3, 5]: 12 ± 1 nM | concentration at 72 h [3, 5]: 10 ± 1 nM | concentration at 4 hr [3, 6]: 62 ± 4 nM | concentration at 8 h [3, 6]: 79 ± 17 nM | concentration at 24 h [3, 6]: 91 ± 19 nM | concentration at 48 h [3, 6]: 53 ± 15 nM | concentration at 72 h [3, 6]: 34 ± 4 nM | concentration at 4 hr [3, 7]: 146 ± 18 nM | concentration at 8 h [3, 7]: 274 ± 46 nM | concentration at 24 h [3, 7]: 301 ± 31 nM | concentration at 48 h [3, 7]: 143 ± 16 nM | concentration at 72 h [3, 7]: 101 ± 21 nM | Plasma concentration at Tmax [3, 4]: 15 ± 3 nM | Plasma concentration at Tmax [3, 5]: 36 ± 5 nM | Plasma concentration at Tmax [3, 6]: 91 ± 19 nM | Plasma concentration at Tmax ([3]; FTY720 10 mg/kg single oral dose): 301 ± 31 nM | time post-dose through which plasma values were detectable ([3]; FTY720 single oral dose): at least 72 hrs
